Assays:
[1] = Inhibition of 5-alpha reductase in rat liver microsomes assessed as inhibition of DHT formation using testosterone as substrate incubated for 10 mins by NADPH assay
[2] = target: T1, Alpha-1D adrenergic receptor (Homo sapiens, UniProt P25100); experiment: Antagonist activity at human alpha1D receptor transfected in HEK293 cells co-transfected with Galpha16 assessed as reduction in intracellular calcium release incubated for 40 mins by Fluo-4AM dye based fluorescence assay; type: functional, cell-based
T1 sequence (P25100 whole entry): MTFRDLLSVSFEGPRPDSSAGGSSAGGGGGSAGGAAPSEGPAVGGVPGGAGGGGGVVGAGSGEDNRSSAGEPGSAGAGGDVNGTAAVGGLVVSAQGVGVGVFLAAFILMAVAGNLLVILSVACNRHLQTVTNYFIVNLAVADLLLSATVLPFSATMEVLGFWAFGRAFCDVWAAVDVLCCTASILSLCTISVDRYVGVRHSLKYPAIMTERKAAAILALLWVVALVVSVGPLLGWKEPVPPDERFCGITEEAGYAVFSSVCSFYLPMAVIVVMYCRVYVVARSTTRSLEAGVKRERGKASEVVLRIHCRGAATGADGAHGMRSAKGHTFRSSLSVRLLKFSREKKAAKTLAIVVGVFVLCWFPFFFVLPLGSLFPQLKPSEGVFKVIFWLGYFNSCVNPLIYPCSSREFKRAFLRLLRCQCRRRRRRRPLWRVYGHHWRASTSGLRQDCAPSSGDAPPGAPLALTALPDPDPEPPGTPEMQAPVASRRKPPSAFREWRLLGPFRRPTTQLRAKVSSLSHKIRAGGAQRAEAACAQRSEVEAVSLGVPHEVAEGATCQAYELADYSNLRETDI

[3] = target: T2, Alpha-1A adrenergic receptor (Homo sapiens, UniProt P35348); experiment: Antagonist activity at human alpha1A receptor transfected in HEK293 cells co-transfected with Galpha16 assessed as reduction in intracellular calcium release incubated for 40 mins by Fluo-4AM dye based fluorescence assay; type: functional, cell-based
T2 sequence (P35348 whole entry): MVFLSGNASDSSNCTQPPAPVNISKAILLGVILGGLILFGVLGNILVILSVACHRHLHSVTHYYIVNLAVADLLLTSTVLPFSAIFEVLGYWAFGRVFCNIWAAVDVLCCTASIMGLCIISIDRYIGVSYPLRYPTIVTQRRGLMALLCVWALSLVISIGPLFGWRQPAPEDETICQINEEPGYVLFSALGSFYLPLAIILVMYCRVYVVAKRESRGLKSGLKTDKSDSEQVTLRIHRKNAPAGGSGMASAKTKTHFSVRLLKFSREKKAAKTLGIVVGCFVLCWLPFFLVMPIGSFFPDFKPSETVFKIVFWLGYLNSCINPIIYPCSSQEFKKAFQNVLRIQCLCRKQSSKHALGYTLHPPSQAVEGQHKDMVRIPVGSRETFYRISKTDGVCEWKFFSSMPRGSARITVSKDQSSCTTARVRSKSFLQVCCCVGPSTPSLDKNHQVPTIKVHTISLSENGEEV

[4] = target: T3, Alpha-1B adrenergic receptor (Homo sapiens, UniProt P35368); experiment: Antagonist activity at human alpha1B receptor transfected in HEK293 cells co-transfected with Galpha16 assessed as reduction in intracellular calcium release incubated for 40 mins by Fluo-4AM dye based fluorescence assay; type: functional, cell-based
T3 sequence (P35368 whole entry): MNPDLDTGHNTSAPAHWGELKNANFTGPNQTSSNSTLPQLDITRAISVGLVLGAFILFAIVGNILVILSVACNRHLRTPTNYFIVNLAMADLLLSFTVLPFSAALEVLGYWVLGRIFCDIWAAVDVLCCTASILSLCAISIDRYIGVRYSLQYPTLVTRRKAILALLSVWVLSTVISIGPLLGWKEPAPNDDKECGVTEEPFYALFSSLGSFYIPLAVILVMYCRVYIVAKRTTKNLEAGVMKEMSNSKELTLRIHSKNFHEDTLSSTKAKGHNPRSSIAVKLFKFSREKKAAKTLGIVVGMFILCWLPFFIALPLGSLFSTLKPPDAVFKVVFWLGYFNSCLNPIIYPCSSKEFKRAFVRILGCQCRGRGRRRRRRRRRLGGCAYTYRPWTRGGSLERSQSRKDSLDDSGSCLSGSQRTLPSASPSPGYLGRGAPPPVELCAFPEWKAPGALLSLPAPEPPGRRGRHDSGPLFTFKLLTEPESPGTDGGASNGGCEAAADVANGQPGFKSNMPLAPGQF

[5] = AUC (0 to infinity) in Sprague-Dawley rat at 2 mg/kg, iv; type: ADME, organism-based; set-up: time infinity, route intravenous, dose 2 mg/kg; conditions: in vivo
[6] = Tmax in Sprague-Dawley rat at 20 mg/kg, ip; type: ADME, organism-based; conditions: in vivo
[7] = tested on: Caco-2; experiment: Cytotoxicity against human Caco-2 cells assessed as reduction in cell viability at 0.390625 to 100 uM incubated for 72 hrs by MTT assay; type: cell-based; conditions: caco-2, 72 h, dose 0.390625-100 µM
[8] = Cmax in Sprague-Dawley rat at 20 mg/kg, ip; type: ADME, organism-based; set-up: route intraperitoneal, dose 20 mg/kg; conditions: in vivo
[9] = AUC (0 to t) in Sprague-Dawley rat at 20 mg/kg, ip; type: ADME, organism-based; set-up: dose 20 mg/kg; conditions: in vivo
[10] = MRT in Sprague-Dawley rat at 2 mg/kg, iv; type: ADME, organism-based; conditions: in vivo
[11] = tested on: Huh-7; experiment: Cytotoxicity against human Huh-7 cells assessed as reduction in cell viability at 0.390625 to 100 uM incubated for 72 hrs by MTT assay; type: cell-based; conditions: huh-7, 72 h, dose 0.390625-100 µM
[12] = MRT in Sprague-Dawley rat at 20 mg/kg, ip; type: ADME, organism-based; conditions: in vivo
[13] = AUC (0 to infinity) in Sprague-Dawley rat at 20 mg/kg, ip; type: ADME, organism-based; set-up: time infinity, route intraperitoneal, dose 20 mg/kg; conditions: in vivo
[14] = Tmax in Sprague-Dawley rat at 2 mg/kg, iv; type: ADME, organism-based; conditions: in vivo
[15] = Bioavailability in Sprague-Dawley rat at 20 mg/kg, ip; type: ADME, organism-based; conditions: in vivo
[16] = Half life in Sprague-Dawley rat at 20 mg/kg, ip; type: ADME, organism-based; conditions: in vivo
[17] = Cmax in Sprague-Dawley rat at 2 mg/kg, iv; type: ADME, organism-based; set-up: route intravenous, dose 2 mg/kg; conditions: in vivo
[18] = Half life in Sprague-Dawley rat at 2 mg/kg, iv; type: ADME, organism-based; conditions: in vivo
[19] = AUC (0 to t) in Sprague-Dawley rat at 2 mg/kg, iv; type: ADME, organism-based; set-up: dose 2 mg/kg; conditions: in vivo

Compound: O=C(O)CCCc1cn(CCCCN2CCN(c3ccccc3Cl)CC2)c2ccccc12
- IC50 [1]: > 5000 nM
- IC50 [2]: 189 nM
- IC50 [3]: > 1000 nM
- IC50 [4]: > 1000 nM

Compound: CCOc1ccccc1OCCN[C@H](C)Cc1ccc(OC)c(S(N)(=O)=O)c1 [TAMSULOSIN]
- IC50 [2]: 0.15 nM
- IC50 [4]: 4.2 nM

Compound: O=C(O)CCCc1cn(CCCCCN2CCN(c3ccccc3Cl)CC2)c2ccccc12
- IC50 [1]: 612 nM
- IC50 [2]: 329 nM
- IC50 [3]: 32.9 nM
- IC50 [4]: > 1000 nM

Compound: COc1ccccc1N1CCN(CCCn2cc(CCCC(=O)O)c3ccccc32)CC1
- IC50 [1]: > 5000 nM
- IC50 [2]: 164 nM
- IC50 [3]: > 1000 nM
- IC50 [4]: > 1000 nM

Compound: COc1ccccc1N1CCN(CCCCn2cc(CCCC(=O)O)c3ccccc32)CC1
- AUC(0-inf) [5]: 30.5 ng·h/mL
- Tmax [6]: 3 min
- Activity [7]: Non-Toxic
- IC50 [1]: 568 nM
- Cmax [8]: 89.6 ng/mL
- AUC(0-t) [9]: 17.5 ng·h/mL
- IC50 [2]: 189 nM
- MRT [10]: 1.94 h
- Activity [11]: Non-Toxic
- IC50 [3]: 20.8 nM
- MRT [12]: 1.49 h
- AUC(0-inf) [13]: 26.9 ng·h/mL
- Tmax [14]: 3 min
- bioavailability [15]: 8.83%
- half-life [16]: 5.75 h
- Cmax [17]: 37.9 ng/mL
- half-life [18]: 11 h
- IC50 [4]: > 1000 nM
- AUC(0-t) [19]: 12.3 ng·h/mL

Compound: CC(C)(C)NC(=O)[C@H]1CC[C@H]2[C@@H]3CC[C@H]4NC(=O)C=C[C@]4(C)[C@H]3CC[C@]12C [FINASTERIDE]
- IC50 [1]: 590 nM

Compound: COc1ccccc1N1CCN(CCCCCn2cc(CCCC(=O)O)c3ccccc32)CC1
- IC50 [1]: > 5000 nM
- IC50 [2]: 378 nM
- IC50 [3]: > 1000 nM
- IC50 [4]: 9.8 nM

From ChEMBL document CHEMBL4765451, “The one-pot synthesis of butyl-1H-indol-3-alkylcarboxylic acid derivatives in ionic liquid as potent dual-acting agent for management of BPH” (Eur J Med Chem, 2020)
